Where a name gives a salt, the structure may show the parent alone.
Legend:
Format in all cases: biochemical
FPP synthase = biological target: T1, FPP synthase (Homo sapiens, UniProt P14324); experiment: FPP synthase enzyme inhibition; settings: mammalian enzyme; also no inhibition at 1 to 10 nanomolar; read-out: FPP synthase: not inhibited at concentrations as high as
T1 sequence (P14324 1-419): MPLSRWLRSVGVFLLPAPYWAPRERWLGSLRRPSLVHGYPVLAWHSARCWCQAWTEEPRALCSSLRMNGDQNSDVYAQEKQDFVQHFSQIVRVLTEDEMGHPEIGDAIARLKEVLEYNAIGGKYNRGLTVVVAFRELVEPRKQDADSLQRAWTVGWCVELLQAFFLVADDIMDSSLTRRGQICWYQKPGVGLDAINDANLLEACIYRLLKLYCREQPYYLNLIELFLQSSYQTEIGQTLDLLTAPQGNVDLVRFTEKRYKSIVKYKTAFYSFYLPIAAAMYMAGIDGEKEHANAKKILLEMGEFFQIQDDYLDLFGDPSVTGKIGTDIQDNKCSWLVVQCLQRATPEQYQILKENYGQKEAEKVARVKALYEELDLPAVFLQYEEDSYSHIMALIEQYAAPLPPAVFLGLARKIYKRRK
Text: (§1) The ability of a compound of the invention to act as an inhibitor of geranylgeranyl pyrophosphate synthase may be determined using pharmacological models which are well known to the art, for example see Holstein, S. A., et al., Biochemistry 2003, 42, 4384-4391; and Ericsson et al, J. Biological Chemistry, 1993, 268, 832-838. The ability of a compound to inhibit FPP synthase, FPTase, and GGPTase can also be determined using pharmacological models which are well known to the art. The selectivity of a compound as an inhibitor of geranylgeranyl pyrophosphate synthase can be evaluated by comparing it's inhibitory activity against this enzyme with it's activity against another enzyme.

FPTase = FPTase (Homo sapiens, UniProt P49356); experiment: FPTase enzyme inhibition; settings: mammalian enzyme; also no inhibition at 1 to 10 nanomolar; read-out: FPTase: not inhibited at concentrations as high as
Text: as §1, with “enzyme. In one embodiment of the invention, the compound of the invention is at least 2-fold selective for inhibiting geranylgeranyl pyrophosphate synthase compared to farnesylpyrophosphate. In another embodiment the compound is at least 10-fold selective for inhibiting geranylgeranyl pyrophosphate synthase compared to farnesylpyrophosphate. In another embodiment the compound is at least about 100-fold selective for inhibiting geranylgeranyl pyrophosphate synthase compared to farnesylpyrophosphate. In another embodiment of the invention, the compound of the invention is at least 2-fold selective for inhibiting geranylgeranyl pyrophosphate synthase compared to FPTase or GGPTase. […]” for “enzyme.”

mammalian GGPP synthase = biological target: T2, mammalian GGPP synthase (Homo sapiens, UniProt O95749); experiment: GGPP synthase enzyme inhibition; settings: read-out: concentration range that inhibits GGPP synthase by 50%
T2 sequence (O95749 1-300): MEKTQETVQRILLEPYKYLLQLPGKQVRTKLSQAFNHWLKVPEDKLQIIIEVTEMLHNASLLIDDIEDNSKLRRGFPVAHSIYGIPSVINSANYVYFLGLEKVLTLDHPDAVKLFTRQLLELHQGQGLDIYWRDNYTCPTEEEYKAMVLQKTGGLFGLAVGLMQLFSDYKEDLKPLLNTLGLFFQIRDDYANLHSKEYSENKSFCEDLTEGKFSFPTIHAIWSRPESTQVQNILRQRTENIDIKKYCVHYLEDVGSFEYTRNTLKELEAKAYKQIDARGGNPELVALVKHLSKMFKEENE
Text: as §1

SMILES	IC50 (FPP synthase) [µM]	IC50 (FPTase) [µM]	IC50 (mammalian GGPP synthase) [µM]
CC(C)=CCC/C(C)=C/CC(C/C=C(\C)CCC=C(C)C)(P(=O)(O)O)P(=O)(O)O [Compound 12, 1-(3,7-dimethyl-octa-2,6-dienyl)-4,8-dimethyl-nona-3,7-dienyl-1,1-bisphosphonic acid, tetrasodium salt]	> 50	> 50	–
CC(C)=CCC/C(C)=C/CC(C/C=C(\C)CCC=C(C)C)(P(=O)(OCOC(=O)C(C)(C)C)OCOC(=O)C(C)(C)C)P(=O)(OCOC(=O)C(C)(C)C)OCOC(=O)C(C)(C)C [Compound 13, tetrapivaloyloxymethyl (E)-1,1-bis(4,8-dimethyl-nona-3,7-dienyl)-1,1-bisphosphonate]	> 50	> 50	0.001 to 0.01
